According to US20240270821A1, “GIP/GLP1/GCG TRI-RECEPTOR AGONISTS AND USES THEREOF” (priority 2023, published 2024):
Where two headings read alike, the source gives them in different places. Starred links: 1 amine or outer side, 2 acyl side, 3 side chain; linkers in the order of their positions; H or OH if unused. Non-standard residues stand in square brackets, D forms with d. Residues, ends and D or L forms follow the SMILES beside them. Groups on a side chain read outwards from the residue. No end group written: not given here. *: point of attachment. C20 diacid = O=C(O)CCCCCCCCCCCCCCCCCCC(=O)*; C18 diacid = O=C(O)CCCCCCCCCCCCCCCCC(=O)*; Phe(4-CN) = N#Cc1ccc(C[C@H](N)C(=O)O)cc1; αMePhe(2-F) = C[C@](N)(Cc1ccccc1F)C(=O)O; γGlu = O=C(O)[C@H](CCC(=O)[*:2])N[*:1]; NMeY = CN[C@@H](Cc1ccc(O)cc1)C(=O)O; αMe4Pal = C[C@](N)(Cc1ccncc1)C(=O)O; αMeY = C[C@](N)(Cc1ccc(O)cc1)C(=O)O; αMeF = C[C@](N)(Cc1ccccc1)C(=O)O; 4Pal = N[C@@H](Cc1ccncc1)C(=O)O; αMeL = CC(C)C[C@](C)(N)C(=O)O; αMeS = C[C@](N)(CO)C(=O)O; Orn = NCCC[C@H](N)C(=O)O; AEEA = NCCOCCOCC(=O)O; Aib = CC(C)(N)C(=O)O

Tests used:
Type in all cases: cell-based
[1] = biological target: hGcgR (Homo sapiens, UniProt P47871); experiment: Functional cAMP activation in the presence of 0.1% casein (no HSA); details: read-out: Relative cAMP EC50, hGcgR;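 note: intracellular cAMP rise after 30 min at 37 °C, read by HTRF against a cAMP standard curve, scaled from buffer only (0%) to maximal control ligand response (100%)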
Sequence of hGcgR (P47871 26-477): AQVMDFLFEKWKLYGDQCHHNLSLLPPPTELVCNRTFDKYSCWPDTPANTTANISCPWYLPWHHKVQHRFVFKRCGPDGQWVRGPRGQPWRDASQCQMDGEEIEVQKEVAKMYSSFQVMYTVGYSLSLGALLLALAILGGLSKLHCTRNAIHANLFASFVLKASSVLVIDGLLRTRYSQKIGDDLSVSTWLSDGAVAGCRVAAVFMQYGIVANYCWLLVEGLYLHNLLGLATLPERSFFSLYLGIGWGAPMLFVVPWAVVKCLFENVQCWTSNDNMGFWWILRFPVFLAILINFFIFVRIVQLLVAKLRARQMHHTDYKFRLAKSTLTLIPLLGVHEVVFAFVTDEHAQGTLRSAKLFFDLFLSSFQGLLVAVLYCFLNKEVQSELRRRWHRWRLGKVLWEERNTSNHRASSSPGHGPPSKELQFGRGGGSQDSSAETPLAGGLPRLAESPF

[2] = biological target: T1, hGLP-1R (Homo sapiens, UniProt P43220); experiment: as above; details: read-out: Relative cAMP EC50, hGLP-1R;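 note: intracellular cAMP rise after 30 min at 37 °C read by HTRF, normalized between buffer only (0%) and maximal control ligand (100%), four-parameter variable-slope fit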
T1 sequence (P43220 24-463): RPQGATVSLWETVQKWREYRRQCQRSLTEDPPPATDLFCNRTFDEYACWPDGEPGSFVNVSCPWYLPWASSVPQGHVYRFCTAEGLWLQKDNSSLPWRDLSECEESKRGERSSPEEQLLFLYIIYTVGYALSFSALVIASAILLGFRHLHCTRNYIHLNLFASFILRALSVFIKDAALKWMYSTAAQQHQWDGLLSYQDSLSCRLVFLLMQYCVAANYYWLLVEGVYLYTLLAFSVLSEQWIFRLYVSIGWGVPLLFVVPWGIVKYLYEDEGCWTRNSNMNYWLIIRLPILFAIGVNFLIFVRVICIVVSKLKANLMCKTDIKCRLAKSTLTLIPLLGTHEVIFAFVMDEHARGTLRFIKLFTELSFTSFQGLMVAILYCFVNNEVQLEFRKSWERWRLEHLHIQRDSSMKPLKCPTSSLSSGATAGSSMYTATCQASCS

[3] = biological target: human GcgR (Homo sapiens, UniProt P47871); experiment: Functional cAMP activity in the presence of 1% HSA; details: read-out: cAMP Rel EC50, hGcgR
Sequence of human GcgR (P47871 26-477): as the sequence (P47871 26-477) above

[4] = biological target: T1, hGLP-1R; experiment: Functional cAMP activity in the presence of 1% HSA; details: read-out: cAMP Rel EC50, hGLP-1R
[5] = biological target: T2, hGIPR (Homo sapiens, UniProt P48546); experiment: Functional cAMP activity in the presence of 1% HSA; details: read-out: cAMP Rel EC50, hGIPR
T2 sequence (P48546 22-466): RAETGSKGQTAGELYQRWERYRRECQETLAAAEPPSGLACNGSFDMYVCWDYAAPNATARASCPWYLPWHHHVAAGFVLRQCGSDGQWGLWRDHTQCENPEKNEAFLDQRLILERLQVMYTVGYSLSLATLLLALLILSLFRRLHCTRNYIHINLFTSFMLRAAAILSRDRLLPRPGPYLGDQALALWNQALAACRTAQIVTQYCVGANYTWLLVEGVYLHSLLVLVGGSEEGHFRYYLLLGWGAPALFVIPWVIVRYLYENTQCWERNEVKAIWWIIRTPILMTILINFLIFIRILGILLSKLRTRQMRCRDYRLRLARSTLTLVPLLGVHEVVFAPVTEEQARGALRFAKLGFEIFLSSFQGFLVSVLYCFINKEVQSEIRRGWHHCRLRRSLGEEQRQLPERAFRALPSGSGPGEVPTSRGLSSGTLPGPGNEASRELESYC

[6] = biological target: T2, hGIPR; experiment: Functional cAMP activation in the presence of 0.1% casein (no HSA); details: read-out: Relative cAMP EC50, hGIPR;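 for Relative cAMP EC50, hGIPR: intracellular cAMP rise after 30 min at 37 °C read by HTRF against a standard curve, scaled between buffer alone (0%) and top control ligand concentration (100%), four-parameter fit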;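 for Relative cAMP EC50, hGLP-1R: intracellular cAMP rise after 30 min at 37 °C read by HTRF, normalized between buffer only (0%) and maximal control ligand (100%), four-parameter variable-slope fit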
[7] = in the presence of 0.1% casein (no HSA), geometric mean
[8] = in the presence of 0.1% casein (no HSA), geometric mean of relative EC50
[9] = HEK-293 clonal cell line, 1% HSA, geometric mean of relative EC50
[10] = 0.1% casein, no HSA, geometric mean

Compound | EC50 [1, 7] | EC50 [2, 7] | EC50 [3] | EC50 [4] | EC50 [5] | EC50 [6, 7] | further results
CC[C@H](C)[C@H](NC(=O)[C@H](Cc1ccccc1)NC(=O)[C@H](C)NC(=O)C(C)(C)NC(=O)[C@H](CCC(N)=O)NC(=O)[C@H](C)NC(=O)[C@H](CCCCNC(=O)COCCOCCNC(=O)CC[C@H](NC(=O)CCCCCCCCCCCCCCCCCCC(=O)O)C(=O)O)NC(=O)[C@H](CCCCN)NC(=O)[C@H](CC(=O)O)NC(=O)[C@H](CC(C)C)NC(=O)[C@](C)(CC(C)C)NC(=O)[C@H](CCCN)NC(=O)[C@H](CO)NC(=O)[C@H](Cc1ccccc1)NC(=O)[C@H](CC(=O)O)NC(=O)[C@H](CO)NC(=O)[C@@H](NC(=O)[C@H](Cc1ccccc1)NC(=O)[C@@H](NC(=O)CNC(=O)[C@H](CCC(N)=O)NC(=O)C(C)(C)NC(=O)[C@@H](N)Cc1ccc(O)cc1)[C@@H](C)O)[C@@H](C)O)C(=O)N[C@@H](CCC(=O)O)C(=O)N[C@@H](Cc1c[nH]c2ccccc12)C(=O)N[C@@H](CC(C)C)C(=O)N[C@@H](CC(C)C)C(=O)N[C@@H](CCC(=O)O)C(=O)NCC(=O)NCC(=O)N1CCC[C@H]1C(=O)N[C@@H](CO)C(=O)N[C@@H](CO)C(=O)NCC(=O)N[C@@H](C)C(=O)N1CCC[C@H]1C(=O)N1CCC[C@H]1C(=O)N1C[C@H](O)C[C@H]1C(=O)N[C@@H](CO)C(=O)NCC(=O)N[C@@H](CCC(=O)O)C(N)=O [Example 105] | 12.5 nM | 2.86 nM | 2790 nM | 768 nM | 72.5 nM | 0.269 nM | –
Y[Aib]QGTFTSD[4Pal]SQ[αMeL]LD[Orn]K([dE-γGlu-C18 diacid])AQ[αMe4Pal]QFIE[αMeY]LIAGGPSSGAPPPSGSEEE-NH2 [Example 1081] | 19.7 nM | 1.29 nM | 2130 nM | 151 nM | 8.44 nM | 0.105 nM | –
H-Y[Aib]QGTFTSD[4Pal]S[Orn][αMeL]LD[Orn]K([γGlu-γGlu-C18 diacid])AQ[αMe4Pal]AFIEYLLAGGPSSGAPPPSGSEE-NH2 [Example 1068] | 4.8 nM | 11.6 nM | 295 nM | 1330 nM | 20.2 nM | 0.211 nM | –
[NMeY][Aib]QGTFTSD[4Pal][αMeS]I[αMeL]LD[Orn]K([dE-γGlu-C18 diacid])AQ[αMe4Pal]QFIQ[αMeY]LIE[Aib]GPSSGAPPPSGGGE-NH2 [Example 1135] | 1.76 nM | 0.746 nM | 142 nM | 63.2 nM | 0.864 nM | 0.0126 nM | –
H-Y[Aib]QGTFTSD[4Pal]SQ[αMeL]LD[Orn]K([γGlu-γGlu-C18 diacid])AQ[αMe4Pal]AFIEYLIE[dA]GPSSGAPPPSGS-NH2 [Example 1017] | 6.47 nM | 1.16 nM | 649 nM | 118 nM | 28.3 nM | 0.228 nM | –
H-Y[Aib]QGT[αMePhe(2-F)]TSD[4Pal]SI[αMeL]LDKK([γGlu-γGlu-C18 diacid])AQ[Aib]AFIEYLSEGGPSSGEPPPSGSEE-NH2 [Example 632] | – | – | – | – | – | – | EC50 [1, 8]: 13.5 nM; EC50 [2, 8]: 0.951 nM; EC50 [3, 9]: 1600 nM; EC50 [4, 9]: 88.2 nM; EC50 [5, 9]: 5.48 nM; EC50 [6, 8]: 0.068 nM
H-Y[Aib]QGTFTSDFS[Orn][αMeL]LDKK([AEEA-γGlu-C20 diacid])AQ[Aib]AFIEYLLAGGTSSGEPPPSGE-NH2 [Example 106] | 6.26 nM | 3.94 nM | 2000 nM | 977 nM | 91 nM | 0.345 nM | –
H-Y[Aib]QGTFTSD[4Pal]SQ[αMeL]LD[Orn]K([AEEA-γGlu-C18 diacid])AQ[αMe4Pal]AFIE[αMeY]LIEGGPSSGAPPPSGSEE-NH2 [Example 1041] | 7.71 nM | 1.24 nM | 1720 nM | 316 nM | 75.7 nM | 0.365 nM | –
H-Y[Aib]QGTFTSD[4Pal]SQ[αMeL]LD[Orn]K([γGlu-γGlu-C18 diacid])AQ[αMe4Pal]AFIEYLIAGGPSSGEPPPSGSE [Example 977] | 7.18 nM | 1.1 nM | 839 nM | 159 nM | 23 nM | 0.189 nM | –
H-Y[Aib]QGT[αMePhe(2-F)]TSD[4Pal]SILLDKK([γGlu-γGlu-C18 diacid])AQ[Aib]AFIEYLEEGGPSSGAPPPSGGEE-NH2 [Example 612] | – | – | 640 nM | 126 nM | 7.58 nM | – | EC50 [1]: 7.13 nM; EC50 [2]: 1.21 nM; EC50 [6]: 0.087 nM
H-Y[Aib]QGTFTSD[4Pal]SR[αMeL]LDKK([AEEA-γGlu-C18 diacid])AQ[Aib]AFIE[αMeY]LLEGGPSSGAPPPSGS-NH2 [Example 909] | 6.82 nM | 1.72 nM | 1740 nM | 243 nM | 20.2 nM | 0.121 nM | –
H-Y[Aib]QGT[αMePhe(2-F)]TSD[4Pal][αMeS]I[αMeL]LD[Orn]K([γGlu-γGlu-C18 diacid])AQ[Aib][Orn]FI[dE][αMeY]LTEGGPSSGEPPPEGTEEE-NH2 [Example 598] | – | – | 457 nM | 47.3 nM | 3.49 nM | – | EC50 [1]: 8.79 nM; EC50 [2]: 0.886 nM; EC50 [6]: 0.0927 nM
H-Y[Aib]QGTFTSD[Phe(4-CN)]S[Orn][αMeL]LDKK([AEEA-γGlu-C18 diacid])AQ[Aib]AFIEYLLE[Aib]GHSSGAPPPSGS-NH2 [Example 190] | 2.95 nM | 1.41 nM | 331 nM | 172 nM | 59.4 nM | 0.306 nM | –
H-Y[Aib]QGT[αMePhe(2-F)]TSD[4Pal][αMeS]I[αMeL]LD[Orn]K([AEEA-γGlu-C18 diacid])AA[Aib]EFI[dE][αMeY]LIEGGPSSGAPPPSGTEE-NH2 [Example 725] | – | – | 244 nM | 29.1 nM | 1.39 nM | – | EC50 [1]: 1.49 nM; EC50 [2]: 0.258 nM; EC50 [6]: 0.0126 nM
Y[Aib]QGT[αMePhe(2-F)]TSD[4Pal]SI[αMeL]LD[Orn]QAQ[αMe4Pal][Orn]FI[dE][αMeY]LIEGGPSSGEPPPETE-NH2 [Example 1230] | – | – | 68.4 nM | 1.14 nM | 0.0152 nM | – | EC50 [1, 10]: 64.7 nM; EC50 [2, 10]: 1.19 nM; EC50 [6, 10]: 0.022 nM
H-Y[Aib]QGT[αMePhe(2-F)]TSD[4Pal][αMeS]I[αMeL]LD[Orn]K([AEEA-γGlu-C18 diacid])AQ[αMe4Pal]EFI[dE][αMeY]LVEGGPSSGEPPPGGE-NH2 [Example 1155] | 1.83 nM | 0.434 nM | 288 nM | 44.4 nM | 0.888 nM | 0.00917 nM | –
CC[C@H](C)[C@H](NC(=O)[C@H](Cc1ccccc1)NC(=O)[C@H](CCCN)NC(=O)C(C)(C)NC(=O)[C@H](CCC(N)=O)NC(=O)[C@H](C)NC(=O)[C@H](CCCCNC(=O)COCCOCCNC(=O)CC[C@H](NC(=O)CCCCCCCCCCCCCCCCC(=O)O)C(=O)O)NC(=O)[C@H](CCCN)NC(=O)[C@H](CC(=O)O)NC(=O)[C@H](CC(C)C)NC(=O)[C@](C)(CC(C)C)NC(=O)[C@@H](NC(=O)[C@](C)(CO)NC(=O)[C@H](Cc1ccc(O)cc1)NC(=O)[C@H](CC(=O)O)NC(=O)[C@H](CO)NC(=O)[C@@H](NC(=O)[C@](C)(Cc1ccccc1)NC(=O)[C@@H](NC(=O)CNC(=O)[C@H](CCC(N)=O)NC(=O)C(C)(C)NC(=O)[C@@H](N)Cc1ccc(O)cc1)[C@@H](C)O)[C@@H](C)O)[C@@H](C)CC)C(=O)N[C@H](CCC(=O)O)C(=O)N[C@@H](Cc1ccc(O)cc1)C(=O)N[C@@H](CC(C)C)C(=O)N[C@@H](CC(C)C)C(=O)N[C@@H](CCC(=O)O)C(=O)NCC(=O)NCC(=O)N1CCC[C@H]1C(=O)N[C@@H](CO)C(=O)N[C@@H](CO)C(=O)NCC(=O)N[C@@H](CCC(=O)O)C(=O)N1CCC[C@H]1C(=O)N1CCC[C@H]1C(=O)N1CCC[C@H]1C(=O)N[C@@H](CCC(=O)O)C(N)=O [Example 391] (H-Y[Aib]QGT[αMeF]TSDY[αMeS]I[αMeL]LD[Orn]K([AEEA-γGlu-C18 diacid])AQ[Aib][Orn]FI[dE]YLLEGGPSSGEPPPE-NH2) | – | – | 808 nM | 34.4 nM | 11.5 nM | – | EC50 [1]: 3.04 nM; EC50 [2]: 0.199 nM; EC50 [6]: 0.0298 nM
